Reference: patent publication US20190233884A1 (University of Southern California, priority 2016, published 2019)

System: patients with refractory metastatic colorectal cancer (mCRC)
Assay: PFS, OS and disease control in the testing (validation) cohort of refractory mCRC patients receiving TAS-102 (n=129, Italy), by baseline characteristics, SNP genotype and toxicity
Format: in vivo, human
Settings: testing cohort
Description: All patients underwent the treatment in salvage-line setting. […]
Genomic DNA was extracted from peripheral whole blood in patients of all cohorts using the QIAmp Kit (Qiagen, Valencia, Calif., USA) according to the manufacturer's protocol (www.qiagen.com). The candidate SNPs were genotyped using PCR-based direct DNA sequence analysis by ABI 3100A Capillary Genetic Analyzer and Sequencing Scanner v1.0 (Applied Biosystems). Amplification of extracted DNA was carried out using both forward and reverse primers for each gene polymorphism as shown in Table 1. […] The investigators analyzing SNPs were blinded to the clinical data of the study patients.
The primary endpoint in this study was progression-free survival (PFS), and the secondary endpoints were overall survival (OS) and disease control rate (DCR). PFS was calculated from the date of starting treatment to the first observation of disease progression or death from any cause. If a patient had no disease progression or death, PFS was censored at the date of last follow up. OS was calculated from the date of starting treatment until the date of death from any cause or the date of the last follow-up, at which point OS was censored. The disease control rate (DCR) was defined as the proportion of patients who achieved a stable disease (SD) or […] according to RECISTv1.1. Chi-square test was used to examine the difference in baseline patient characteristics among the three cohorts. Allelic distribution of all SNPs by ethnicity for deviation from Hardy-Weinberg equilibrium and the allelic frequencies of SNPs were tested using the Chi-square tests with one degree of freedom. The associations between candidate SNPs and disease control, and toxicities were examined using contingency tables and Fisher's exact test. The associations of SNPs with PFS and OS were analysed using Kaplan-Meier curves and the log-rank test. Because the true mode of inheritance of candidate SNPs was not established yet, a codominant or dominant genetic model if appropriate was considered.
All patients underwent the treatment in salvage-line setting. […] In all patients, adverse events were graded according to the Common Terminology Criteria for Adverse Events, version 4.0. […]
Genomic DNA was extracted from peripheral whole blood in patients of all cohorts using the QIAmp Kit (Qiagen, Valencia, Calif., USA) according to the manufacturer's protocol (www.qiagen.com). The candidate SNPs were tested using PCR-based direct DNA sequence analysis by ABI 3100A Capillary Genetic Analyzer and Sequencing Scanner v1.0 (Applied Biosystems). […] The investigators analyzing SNPs were blinded to the clinical data.
The primary endpoint in this study was progression-free survival (PFS), and the secondary endpoints were overall survival (OS) and disease control rate (DCR).

[1] = hENT1 + OCT2/MATE1 classification: Fair
[2] = hENT1 + OCT2/MATE1 classification: Good or Excellent
[3] = hENT1 + OCT2/MATE1 classification: Poor

**Q.** Which results are given for Trifluridine/tipiracil [TAS-102]?
**A.** Progression-free Survival Median, months (95% CI) (MATE1_OCT019 Poor): 2.0 (1.8, 2.1) months; Disease Control Rate PD (MATE1 rs2289659 A/A): 20 (74%); Disease Control Rate SD (MATE1 rs2289659 A/A): 7 (26%); Progression-free Survival Median, months (95% CI) (MATE1 rs2289659 A/A): 2.0 (1.7, 2.3) months; Overall Survival HR (95% CI) multivariate (MATE1 rs2289659 A/A vs G/G): 1.42 (0.61, 3.32); Overall Survival HR (95% CI) univariate (MATE1 rs2289659 A/A vs G/G): 1.13 (0.50, 2.58); Progression-free Survival HR (95% CI) multivariate (MATE1 rs2289659 A/A vs G/G): 1.11 (0.63, 1.96); Progression-free Survival HR (95% CI) univariate (MATE1 rs2289659 A/A vs G/G): 1.01 (0.58, 1.74); Disease Control Rate PD (MATE1 rs2289659 Any A): 64 (70%); Disease Control Rate SD (MATE1 rs2289659 Any A): 27 (30%); Overall Survival Median, months (95% CI) (MATE1 rs2289659 Any A): 5.3 (3.9, 8.8+) months; Progression-free Survival Median, months (95% CI) (MATE1 rs2289659 Any A): 2.0 (1.9, 2.1) months; Overall Survival HR (95% CI) multivariate (MATE1 rs2289659 Any A vs G/G): 1.60 (0.85, 3.04); Overall Survival HR (95% CI) univariate (MATE1 rs2289659 Any A vs G/G): 1.42 (0.76, 2.64); Progression-free Survival HR (95% CI) multivariate (MATE1 rs2289659 Any A vs G/G): 1.14 (0.74, 1.75); Progression-free Survival HR (95% CI) univariate (MATE1 rs2289659 Any A vs G/G): 1.03 (0.68, 1.58); Disease Control Rate PD (MATE1 rs2289659 G/A): 44 (69%); Disease Control Rate SD (MATE1 rs2289659 G/A): 20 (31%); Overall Survival Median, months (95% CI) (MATE1 rs2289659 G/A): 4.6 (3.7, 8.8+) months; Progression-free Survival Median, months (95% CI) (MATE1 rs2289659 G/A): 2.0 (1.8, 2.3) months; Overall Survival HR (95% CI) multivariate (MATE1 rs2289659 G/A vs G/G): 1.67 (0.56, 3.25); Overall Survival HR (95% CI) univariate (MATE1 rs2289659 G/A vs G/G): 1.55 (0.81, 2.96); Progression-free Survival HR (95% CI) multivariate (MATE1 rs2289659 G/A vs G/G): 1.15 (0.73, 1.53); Progression-free Survival HR (95% CI) univariate (MATE1 rs2289659 G/A vs G/G): 1.04 (0.66, 1.64); Disease Control Rate PD (MATE1 rs2289659 G/G): 27 (73%); Disease Control Rate SD (MATE1 rs2289659 G/G): 10 (27%); Overall Survival Median, months (95% CI) (MATE1 rs2289659 G/G): 9.0 (4.4, 9.0+) months; Progression-free Survival Median, months (95% CI) (MATE1 rs2289659 G/G): 1.9 (1.9, 2.4) months; Disease Control Rate PD (OCT2 rs316019 C/A): 21 (68%); Disease Control Rate SD (OCT2 rs316019 C/A): 10 (32%); Overall Survival Median, months (95% CI) (OCT2 rs316019 C/A): 4.6 (3.6, 7.1+) months; Progression-free Survival Median, months (95% CI) (OCT2 rs316019 C/A): 1.9 (1.7, 2.4) months; Overall Survival HR (95% CI) multivariate (OCT2 rs316019 C/A vs C/C): 1.00 (0.53, 1.89); Overall Survival HR (95% CI) univariate (OCT2 rs316019 C/A vs C/C): 1.19 (0.64, 2.19); Progression-free Survival HR (95% CI) multivariate (OCT2 rs316019 C/A vs C/C): 1.28 (0.79, 2.07); Progression-free Survival HR (95% CI) univariate (OCT2 rs316019 C/A vs C/C): 1.12 (0.72, 1.76); Disease Control Rate PD (OCT2 rs316019 C/C): 70 (72%); Disease Control Rate SD (OCT2 rs316019 C/C): 27 (28%); Overall Survival Median, months (95% CI) (OCT2 rs316019 C/C): 5.5 (4.7, 9.0+) months; Progression-free Survival Median, months (95% CI) (OCT2 rs316019 C/C): 2.0 (1.9, 2.3) months; Overall Survival HR (95% CI) multivariate (adjusted for age group, liver metastasis, ECOG performance status, previous anti-EGFR, OCT2 rs316000 A/G vs A/A): 0.66 (0.36, 1.23); Overall Survival HR (95% CI) multivariate (adjusted for age group, liver metastasis, ECOG performance status, previous anti-EGFR, OCT2 rs316000 Any G vs A/A): 0.66 (0.36, 1.21); Overall Survival HR (95% CI) multivariate (adjusted for age group, liver metastasis, ECOG performance status, previous anti-EGFR, OCT2 rs316000 G/G vs A/A): 0.64 (0.08, 4.91); Overall Survival HR (95% CI) univariate (genotype vs A/A, OCT2 rs316000 A/G vs A/A): 0.87 (0.48, 1.57); Overall Survival HR (95% CI) univariate (genotype vs A/A, OCT2 rs316000 Any G vs A/A): 0.83 (0.46, 1.47); Overall Survival HR (95% CI) univariate (genotype vs A/A, OCT2 rs316000 G/G vs A/A): 0.45 (0.06, 3.28); OS [1]: 4.0 months; PFS [1]: 1.9 months; OS [2]: 9.0 months; PFS [2]: 2.1 months; OS [3]: 3.6 months; PFS [3]: 2.0 months; Disease Control Rate PD (hENT1 rs750370 A/A): 36 (80%)
